# Laboratory results published in US11731964B2, “Benzamide antibacterial agents” (Purdue Research Foundation, priority 2018, dated 2023).
# Where two headings read alike, the source gives them in different places.
# How the values were obtained:
# [1] = tested on: Escherichia coli JW5503-1 (ΔtolC); experiment: MIC against Gram-negative pathogens (efflux pump knockout); assay type: cell-based
# Protocol: (§1) Bacteria were cultured in cation-adjusted Mueller Hinton Broth (for strains in Tables 1 and 4) or Brain Heart Infusion broth (for Enterococcus faecium) or Tryptic Soy Broth (all other bacteria) in a 96-well plate at 37° C. for at least 20 hours. The MIC was classified as the lowest concentration where no visual growth of bacteria was observed. The minimum bactericidal concentration (MBC) was tested by spotting 4 μL from wells with no growth onto Tryptic Soy Agar (TSA) plates. Plates were incubated at 37° C. for at least 18 hours before recording the MBC.
# Escherichia coli BW25113 = experiment: MIC against Gram-negative pathogens; assay type: cell-based
# Protocol: as §1
# [2] = tested on: C. difficile NR-32891 (P13); experiment: Clostridium difficile inhibition analysis; assay type: cell-based; details: Table 7, C. difficile NR-32891 (P13)
# [3] = tested on: Clostridium difficile ATCC 43255; experiment: Clostridium difficile inhibition analysis; assay type: cell-based; details: Table 7, C. difficile ATCC 43255
# [4] = tested on: C. difficile NR-32895 (P19); experiment: Clostridium difficile inhibition analysis; assay type: cell-based; details: Table 7, C. difficile NR-32895 (P19)
# L. monocytogenes = experiment: MIC (Table 5, strain not given); assay type: cell-based; details: Listeria monocytogenes; L. monocytogenes (Table 5)
# Protocol: as §1
# E. faecalis = experiment: MIC (Table 5, strain not given); assay type: cell-based; details: Enterococcus faecalis; E. faecalis (Table 5)
# Protocol: as §1
# VRE = experiment: MIC (Table 5, strain not given); assay type: cell-based; details: Enterococcus; VRE (Table 5)
# Protocol: as §1
# S. aureus = experiment: MIC (Table 5, strain not given); assay type: cell-based; details: Staphylococcus aureus; S. aureus (Table 5)
# Protocol: as §1
# [5] = tested on: C. difficile NR-32883 (P2); experiment: Clostridium difficile inhibition analysis; assay type: cell-based; details: Table 7, C. difficile NR-32883 (P2)
# [6] = tested on: C. difficile NR-32904 (P30); experiment: Clostridium difficile inhibition analysis; assay type: cell-based; details: Table 7, C. difficile NR-32904 (P30)
# [7] = tested on: C. difficile NR-13432 (isolate 6); experiment: Clostridium difficile inhibition analysis; assay type: cell-based; details: Table 7, C. difficile NR-13432 (isolate 6)
# MRSA ATCC 33592 = experiment: MIC, broth microdilution; assay type: cell-based; details: Staphylococcus aureus; MRSA ATCC 33592; read-out: MIC
# Protocol: as §1
# [8] = tested on: C. difficile NR-13435 (isolate 9); experiment: Clostridium difficile inhibition analysis; assay type: cell-based; details: Table 7, C. difficile NR-13435 (isolate 9)
# VISA NRS1 = experiment: MIC and MBC; assay type: cell-based, S. aureus; details: Staphylococcus aureus, VISA NRS1
# Protocol: as §1
# VRSA VRS12 = experiment: MIC and MBC; assay type: cell-based, S. aureus; details: Staphylococcus aureus, VRSA VRS12
# Protocol: as §1
# MRSA USA300 = experiment: Time-kill analysis; assay type: cell-based, Staphylococcus aureus
# Protocol: The time-kill analysis was performed as previously described^29. […] Aliquots (100 μL) were collected from each treatment after 0, 2, 4, 8, 12, and 24 hours of incubation at 37° C. and subsequently serially diluted in phosphate-buffered saline (PBS). Bacteria were then transferred to TSA plates and incubated at 37° C. for 18-20 hours before viable CFU/mL was determined.
# MRSA NRS119 = experiment: MIC and MBC; assay type: cell-based, Staphylococcus aureus; details: MRSA NRS119
# Protocol: as §1
# MRSA NRS384 (USA300) = experiment: MIC and MBC; assay type: cell-based; details: Staphylococcus aureus, MRSA NRS384 (USA300)
# Protocol: as §1
# MRSA NRS123 (USA400) = experiment: MIC and MBC; assay type: cell-based; details: Staphylococcus aureus, MRSA NRS123 (USA400)
# Protocol: as §1
# MRSA NRS387 (USA800) = experiment: MIC and MBC; assay type: cell-based; details: Staphylococcus aureus, MRSA NRS387 (USA800)
# Protocol: as §1
# MRSA NRS386 (USA700) = experiment: MIC and MBC; assay type: cell-based; details: Staphylococcus aureus, MRSA NRS386 (USA700)
# Protocol: as §1
# MRSA NRS385 (USA500) = experiment: MIC and MBC; assay type: cell-based; details: Staphylococcus aureus, MRSA NRS385 (USA500)
# Protocol: as §1
# E. faecium ATCC = experiment: MIC and MBC; assay type: cell-based; details: Enterococcus faecium, E. faecium ATCC
# Protocol: as §1
structure (smiles),measurement,setting,value
CC[C@H]1OC(=O)[C@H](C)[C@@H](O[C@H]2C[C@@](C)(OC)[C@@H](O)[C@H](C)O2)[C@H](C)[C@@H](O[C@@H]2O[C@H](C)C[C@H](N(C)C)[C@H]2O)[C@](C)(O)C[C@@H](C)C(=O)[C@H](C)[C@@H](O)[C@]1(C)O [Erythromycin],MIC,[1],≤ 1 µg/mL
same,MIC,"Escherichia coli BW25113; Escherichia coli BW25113 (wild-type), read-out: MIC",32 µg/mL
"C[C@@H]1C[C@H](C)CN(S(=O)(=O)c2ccc(C(=O)Nc3nnc(-c4ccc(C(F)(F)F)cc4)o3)cc2)C1 [HSGN-94, 4-(((3S,5R)-3,5-dimethylpiperidin-1-yl)sulfonyl)-N-(5-(4-(trifluoromethyl)phenyl)-1,3,4-oxadiazol-2-yl)benzamide]",Antibacterial activity,[2],0.125
same,Antibacterial activity,[3],0.06
same,Antibacterial activity,[4],0.06
same,MIC,L. monocytogenes,0.5 µg/mL
same,MIC,E. faecalis,2 µg/mL
same,MIC,VRE,1 µg/mL
same,MIC,S. aureus,0.25 µg/mL
same,Antibacterial activity,[5],0.06
same,Antibacterial activity,[6],0.125
same,Antibacterial activity,[7],0.06
same,MIC,MRSA ATCC 33592,0.25 µg/mL
same,Antibacterial activity,[8],0.06
CC(=O)NC[C@H]1CN(c2ccc(N3CCOCC3)c(F)c2)C(=O)O1 [Linezolid],MIC,[1],8 µg/mL
same,MIC,"Escherichia coli BW25113; Escherichia coli, BW25113",> 128 µg/mL
same,MBC,VISA NRS1; read-out: MBC,1 µg/mL
same,MIC,VISA NRS1; read-out: MIC,≤ 1 µg/mL
same,MBC,VRSA VRS12; read-out: MBC,32 µg/mL
same,MIC,VRSA VRS12; read-out: MIC,≤ 1 µg/mL
same,reduction in MRSA USA300 (time-kill),"MRSA USA300; 3×MIC, after a 24-hour incubation period",2.16 log10
same,in vitro effect against MRSA USA300,MRSA USA300; time-kill analysis and MBC,bacteriostatic
same,MIC,MRSA NRS119,inactive
same,MBC,"MRSA NRS119; Staphylococcus aureus, read-out: MBC",32 µg/mL
same,MIC,"MRSA NRS119; Staphylococcus aureus, read-out: MIC",32 µg/mL
same,MBC,MRSA NRS384 (USA300); read-out: MBC,64 µg/mL
same,MIC,MRSA NRS384 (USA300); read-out: MIC,≤ 1 µg/mL
same,MBC,MRSA NRS123 (USA400); read-out: MBC,64 µg/mL
same,MIC,MRSA NRS123 (USA400); read-out: MIC,≤ 1 µg/mL
same,MBC,MRSA NRS387 (USA800); read-out: MBC,128 µg/mL
same,MIC,MRSA NRS387 (USA800); read-out: MIC,≤ 1 µg/mL
same,MBC,MRSA NRS386 (USA700); read-out: MBC,128 µg/mL
same,MIC,MRSA NRS386 (USA700); read-out: MIC,≤ 1 µg/mL
same,MBC,MRSA NRS385 (USA500); read-out: MBC,2 µg/mL
same,MIC,MRSA NRS385 (USA500); read-out: MIC,≤ 1 µg/mL
same,MBC,E. faecium ATCC; read-out: MBC,64 µg/mL
same,MIC,E. faecium ATCC; read-out: MIC,≤ 1 µg/mL
